Data taken from patent publication US20250296960A1, “PEPTIDE COMPOSITIONS AND METHODS OF USE THEREOF” (priority 2022, published 2025).
Where two headings read alike, the source gives them in different places. Numbered stars: 1 amine (or outer) side, 2 acyl side, 3 side chain; on linkers, the order of the positions; unused ones are H or OH. Square brackets hold non-standard residues; d marks the D form. Side chains are listed from the residue outwards. Peptide text beside a SMILES is read from it. * marks the point of attachment. X1 = O=C(O)CCCCCCCCCCCCCCCCC(=O)N[C@@H](CCC(=O)NCCOCCOCC(=O)NCCOCCOCC(=O)NCCN1C(=O)CC(*)C1=O)C(=O)O; Biotin = O=C1N[C@H]2[C@H](CS[C@H]2CCCCC(=O)*)N1; C18 diacid = O=C(O)CCCCCCCCCCCCCCCCC(=O)*; γGlu = O=C(O)[C@H](CCC(=O)[*:2])N[*:1]; AEEA = NCCOCCOCC(=O)O; Aib = CC(C)(N)C(=O)O

Tests used:
[1] = Intestinal absorption / PK after intraduodenal administration of oral formulation in rats, serum LC-MS/MS; details: rat, in vivo, 300 nmol/kg
Experimental: This study was conducted to evaluate the intestinal absorption of peptides following enteral administration of oral pharmaceutical formulations. The pharmaceutical formulation was administered in a form of suspensions by intraduodenal (ID) injection in rats. SEQ ID_87, 89 and 90 was accurately weighed and dissolved in 10 mM PBS containing polysorbate 80 (pH 7.4, vehicle I). The mixture was vortexed for 5 min to get a clear solution. Then, 2.5 mL of vehicle was added to the mixture and vortexed for 30 min to get homogenous opaque suspension. The composition of Vehicle II was sodium chenodeoxycholate, and propyl gallate in polysorbate 80 in PBS. The animals were not fasted prior to dosing. 0.2˜ 0.4 mL of whole blood was taken from vein at each time point (0, 0.167, 0.5, 1, 2, 4, 8, 24, and 48 hrs after IV or ID administration). The collected whole blood was incubated at room temperature for 20 min and tubes were centrifugated at 13,000 rpm for 10 min at 4° C. The resulting serum 0.1˜ 0.2 mL was transferred into the tube and stored at −70° C. until analysis. The concentrations of peptides in serum were determined by LC-MS/MS analysis. PK parameters were analyzed by non-compartmental analysis using Phoenix WinNonlin 5.0.1. software (Pharsight Corporation, Mountain View, CA, USA).

human GIPR = biological target: T1, human GIPR (Homo sapiens, UniProt P48546); assay: cAMP assay (HitHunter cAMP) in GIPR-expressing CHO-K1 cells (GIPR+ cells); assay type: cell-based
T1 construct: host or cells: CHO-K1
T1 sequence (P48546 22-466): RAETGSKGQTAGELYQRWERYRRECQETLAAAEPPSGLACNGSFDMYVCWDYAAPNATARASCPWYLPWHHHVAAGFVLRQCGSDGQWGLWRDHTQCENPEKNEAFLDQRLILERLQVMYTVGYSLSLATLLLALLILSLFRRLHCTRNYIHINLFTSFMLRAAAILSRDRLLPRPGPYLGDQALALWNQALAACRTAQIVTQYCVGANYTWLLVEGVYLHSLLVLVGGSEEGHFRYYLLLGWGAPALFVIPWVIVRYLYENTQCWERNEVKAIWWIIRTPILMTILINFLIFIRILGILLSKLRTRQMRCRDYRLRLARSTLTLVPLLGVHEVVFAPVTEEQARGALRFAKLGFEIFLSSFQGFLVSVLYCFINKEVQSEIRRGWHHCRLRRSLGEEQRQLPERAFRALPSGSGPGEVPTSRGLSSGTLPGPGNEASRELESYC
Experimental: (§1) The cells were seeded in a 96-well plate at 7×10^3 cells/well using cell plate reagent and incubated the cells overnight at 37° C. and 5% CO2. To perform the cAMP detection assay, cell plating reagent were replaced with the cAMP Assay buffer. Each of the wells was then treated with the diluted peptide and incubated for 30 minutes under conditions of a temperature of 37° C. in a CO2 incubator.
(§2) After the incubation, cAMP Antibody reagent and Working cAMP detection solution to all wells. Incubate the plate for 1 hour at Room temperature in the dark. Then, cAMP Solution A was added and incubated for 3 hours at room temperature in the dark. Subsequently, the luminescence was measured using the microplate reader device.

human GLP-1R = biological target: T2, human GLP-1R (Homo sapiens, UniProt P43220); assay: cAMP assay (HitHunter cAMP) in GLP-1R-expressing CHO-K1 cells (GLP-1R+ cells); assay type: cell-based
T2 construct: host or cells: CHO-K1
T2 sequence (P43220 24-463): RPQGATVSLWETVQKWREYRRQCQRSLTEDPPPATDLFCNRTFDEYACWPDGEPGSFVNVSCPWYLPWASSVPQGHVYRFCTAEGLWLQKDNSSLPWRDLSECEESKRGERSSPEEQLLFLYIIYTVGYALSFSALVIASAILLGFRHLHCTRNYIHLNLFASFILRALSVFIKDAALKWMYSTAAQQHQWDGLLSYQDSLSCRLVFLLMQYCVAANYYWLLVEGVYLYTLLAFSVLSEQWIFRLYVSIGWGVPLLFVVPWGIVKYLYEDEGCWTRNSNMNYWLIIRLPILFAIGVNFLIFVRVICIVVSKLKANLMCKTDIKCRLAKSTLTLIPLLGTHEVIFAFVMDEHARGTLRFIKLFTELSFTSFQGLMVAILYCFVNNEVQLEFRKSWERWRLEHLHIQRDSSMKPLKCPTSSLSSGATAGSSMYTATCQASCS
Experimental: as §1, §2

human GCGR = biological target: T3, human GCGR (Homo sapiens, UniProt P47871); assay: cAMP assay (HitHunter cAMP) in GCGR-expressing CHO-K1 cells (GCGR+ cells); assay type: cell-based
T3 construct: host or cells: CHO-K1
T3 sequence (P47871 26-477): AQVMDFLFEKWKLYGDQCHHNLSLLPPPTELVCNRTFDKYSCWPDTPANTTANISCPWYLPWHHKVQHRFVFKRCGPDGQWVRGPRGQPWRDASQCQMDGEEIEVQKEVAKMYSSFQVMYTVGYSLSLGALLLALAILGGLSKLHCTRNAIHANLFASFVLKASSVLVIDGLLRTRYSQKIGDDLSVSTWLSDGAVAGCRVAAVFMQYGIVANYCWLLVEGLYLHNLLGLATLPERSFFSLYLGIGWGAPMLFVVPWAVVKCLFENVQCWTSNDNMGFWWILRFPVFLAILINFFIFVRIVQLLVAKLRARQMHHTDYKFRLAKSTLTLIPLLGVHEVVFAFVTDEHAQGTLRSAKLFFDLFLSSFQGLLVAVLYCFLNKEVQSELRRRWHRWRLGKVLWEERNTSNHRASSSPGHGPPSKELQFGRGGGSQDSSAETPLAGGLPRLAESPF
Experimental: as §1, §2

[2] = Body weight loss in normal C57BL/6 mice, subcutaneous dosing; assay type: in vivo; details: normal mice; 20 nmol/kg QD; after 48 or 72 hours
Experimental: To confirm the therapeutic effect of the peptide in vivo, polypeptides were administered to mice to measure changes in body weight. […] The peptides were delivered at 0.02% polysorbate 80 (PS80) in PBS and dosing volume was 10 mL/kg. Body weight was monitored 6 h, QD.
To confirm the therapeutic effect of the peptide in obesity, diabetes, or NASH, polypeptides were administered to mice to measure changes in food intake, blood glucose and body weight. […] In addition, a NASH animal model was prepared by feeding a high fat, high fructose, high cholesterol diet to normal C57BL/6 mice (approximately 6 weeks old) for approximately 21 weeks, and increasing the body weights of the mice to approximately 50 g on average. Thereafter, polypeptides were administered by subcutaneous injection at dose of 20 nmol/kg once every other day for 2 weeks. Body weight and food intake were measured once every other day given points of time. After 2 weeks of treatment period, mice were sacrificed, then liver weight, hepatic triglyceride, and NASH related biomarkers were measured.
DD01 administered at 40 nmol/kg, s.c. Q2D as positive control was delivered at 0.02% PS80 in PBS and dosing volume was 10 mL/kg. Body weight was monitored QD for 4 days.
The peptides were delivered at 0.02% PS80 in PBS and dosing volume was 10 mL/kg. Food intake, blood glucose, and body weight changes were monitored QD.

[3] = Table 19, normalised to activity at GLP-1R
[4] = Table 24, ratio of EC50 of native ligand over peptide

Compound `CSCC[C@H](NC(=O)[C@H](CCCCNC(=O)CCCC[C@@H]1SC[C@@H]2NC(=O)N[C@@H]21)NC(=O)[C@H](Cc1ccc(O)cc1)NC(=O)[C@H](CC(=O)O)NC(=O)[C@H](CC(C)C)NC(=O)[C@H](CC(C)C)NC(=O)[C@H](CCCCNC(=O)COCCOCCNC(=O)COCCOCCNC(=O)CC[C@H](NC(=O)CCCCCCCCCCCCCCCCC(=O)O)C(=O)O)NC(=O)[C@H](CO)NC(=O)[C@H](Cc1ccc(O)cc1)NC(=O)[C@H](CC(=O)O)NC(=O)[C@H](CO)NC(=O)[C@@H](NC(=O)[C@H](Cc1ccccc1)NC(=O)[C@@H](NC(=O)CNC(=O)[C@H](CCC(N)=O)NC(=O)C(C)(C)NC(=O)[C@@H](N)Cc1ccc(O)cc1)[C@@H](C)O)[C@@H](C)O)C(=O)N[C@@H](CCC(N)=O)C(=O)N[C@@H](CCCNC(=N)N)C(=O)N[C@@H](CC(=O)O)C(=O)N[C@@H](Cc1ccccc1)C(=O)N[C@H](C(=O)N[C@@H](CCC(N)=O)C(=O)N[C@@H](Cc1c[nH]c2ccccc12)C(=O)N[C@@H](CC(C)C)C(=O)N[C@@H](CC(C)C)C(=O)N[C@@H](CCC(=O)O)C(=O)NCC(=O)NCC(=O)N1CCC[C@H]1C(=O)N[C@@H](CO)C(=O)N[C@@H](CO)C(=O)NCC(=O)N[C@@H](C)C(=O)N1CCC[C@H]1C(=O)N1CCC[C@H]1C(=O)N1CCC[C@H]1C(=O)N[C@@H](CO)C(N)=O)C(C)C` [SEQ ID NO. 87, YAibQGT FTSDY SK*LLD YB*MQR DFVQW LLEGG PSSGA PPPS] (H-Y[Aib]QGTFTSDYSK([AEEA-AEEA-γGlu-C18 diacid])LLDYK(Biotin)MQRDFVQWLLEGGPSSGAPPPS-NH2; N-terminus and C-terminus assumed) has an AUC(0-inf) [1] of 1860 ng·h/mL, a Cmax [1] of 290 ± 110 ng/mL and an MRT inf [1] of 8.19 ± 1.92 h. For the same compound, the Tmax [1] was 15 ± 10.2 min and the half-life [1] was 370 ± 81.6 min.

`CSCC[C@H](NC(=O)[C@H](Cc1ccc(O)cc1)NC(=O)[C@H](CC(=O)O)NC(=O)[C@H](CC(C)C)NC(=O)[C@H](CC(C)C)NC(=O)[C@H](CCCCNC(=O)COCCOCCNC(=O)COCCOCCNC(=O)CC[C@H](NC(=O)CCCCCCCCCCCCCCCCC(=O)O)C(=O)O)NC(=O)[C@H](CO)NC(=O)[C@H](Cc1ccc(O)cc1)NC(=O)[C@H](CC(=O)O)NC(=O)[C@H](CO)NC(=O)[C@@H](NC(=O)[C@H](Cc1ccccc1)NC(=O)[C@@H](NC(=O)CNC(=O)[C@H](CCC(N)=O)NC(=O)C(C)(C)NC(=O)[C@@H](N)Cc1ccc(O)cc1)[C@@H](C)O)[C@@H](C)O)C(=O)N[C@@H](CCSC)C(=O)N[C@@H](CCC(N)=O)C(=O)N[C@@H](CCCNC(=N)N)C(=O)N[C@@H](CC(=O)O)C(=O)N[C@@H](Cc1ccccc1)C(=O)N[C@H](C(=O)N[C@@H](CCCCNC(=O)CCCC[C@@H]1SC[C@@H]2NC(=O)N[C@@H]21)C(=O)N[C@@H](Cc1c[nH]c2ccccc12)C(=O)N[C@@H](CC(C)C)C(=O)N[C@@H](CC(C)C)C(=O)N[C@@H](CCC(=O)O)C(=O)NCC(=O)NCC(=O)N1CCC[C@H]1C(=O)N[C@@H](CO)C(=O)N[C@@H](CO)C(=O)NCC(=O)N[C@@H](C)C(=O)N1CCC[C@H]1C(=O)N1CCC[C@H]1C(=O)N1CCC[C@H]1C(=O)N[C@@H](CO)C(N)=O)C(C)C` [SEQ ID_89] (H-Y[Aib]QGTFTSDYSK([AEEA-AEEA-γGlu-C18 diacid])LLDYMMQRDFVK(Biotin)WLLEGGPSSGAPPPS-NH2; N-terminus and C-terminus assumed) showed an AUC(0-inf) ([1]; rats, single intraduodenal administration, oral formulation suspension, serum, mean ± SD, read-out: AUCinf) of 2790 ng·h/mL, a Cmax ([1]; rats, single intraduodenal administration, oral formulation suspension, serum, mean ± SD, read-out: Cmax) of 332 ± 124 ng/mL and an MRT inf ([1]; rats, single intraduodenal administration, oral formulation suspension, serum, mean ± SD, read-out: MRTinf) of 9.89 ± 3.91 h. The Tmax ([1]; rats, single intraduodenal administration, oral formulation suspension, serum, mean ± SD, read-out: Tmax) was 25.8 ± 9 min and the half-life ([1]; rats, single intraduodenal administration, oral formulation suspension, serum, mean ± SD, read-out: t1/2 (converted)) was 434 ± 123 min.

For `CC[C@H](C)[C@H](NC(=O)[C@H](CC(C)C)NC(=O)[C@H](Cc1c[nH]c2ccccc12)NC(=O)[C@H](CCC(N)=O)NC(=O)[C@@H](NC(=O)[C@H](Cc1ccccc1)NC(=O)[C@H](CC(=O)O)NC(=O)[C@H](CCCNC(=N)N)NC(=O)[C@H](CCC(N)=O)NC(=O)[C@H](CCSC)NC(=O)[C@H](CCSC)NC(=O)[C@H](Cc1ccc(O)cc1)NC(=O)[C@H](CC(=O)O)NC(=O)[C@H](CC(C)C)NC(=O)[C@H](Cc1ccc(O)cc1)NC(=O)[C@H](CCCCN)NC(=O)[C@H](CO)NC(=O)[C@H](Cc1ccc(O)cc1)NC(=O)[C@H](CC(=O)O)NC(=O)[C@H](CO)NC(=O)[C@@H](NC(=O)[C@H](Cc1ccccc1)NC(=O)[C@@H](NC(=O)CNC(=O)[C@H](CCC(N)=O)NC(=O)C(C)(C)NC(=O)[C@@H](N)Cc1ccc(O)cc1)[C@@H](C)O)[C@@H](C)O)C(C)C)C(=O)N[C@@H](CCC(=O)O)C(=O)NCC(=O)NCC(=O)N1CCC[C@H]1C(=O)N[C@@H](CO)C(=O)N[C@@H](CO)C(=O)NCC(=O)N[C@@H](C)C(=O)N1CCC[C@H]1C(=O)N1CCC[C@H]1C(=O)N1CCC[C@H]1C(=O)N[C@@H](CO)C(=O)N[C@@H](CSC1CC(=O)N(CCNC(=O)COCCOCCNC(=O)COCCOCCNC(=O)CC[C@H](NC(=O)CCCCCCCCCCCCCCCCC(=O)O)C(=O)O)C1=O)C(N)=O` (some centres unmarked) [5-2A] (H-Y[Aib]QGTFTSDYSKYLDYMMQRDFVQWLIEGGPSSGAPPPSC(X1)-NH2; N-terminus assumed), the “Activity relative to STD peptide (%), GIPR” value (human GIPR; Table 18) was 3%, the “Activity relative to GLP-1 (%), GIPR” value (human GIPR; [3]) was 2% and the “Relative % to native ligand, GIPR” value (human GIPR; [4]) was 3%. The “Ratio vs. GLP-1R, GIPR” value (human GIPR; Table 25) was 2, the “Relative % to non-lipidated peptide, GIPR” value (human GIPR; Table 26) was 0.4% and the “Activity relative to STD peptide (%), GLP-1R” value (human GLP-1R; Table 18) was 145%. The “Activity relative to GLP-1 (%), GLP-1R” value (human GLP-1R; [3]) was 100%, the “Relative % to native ligand, GLP-1R” value (human GLP-1R; [4]) was 145% and the “Ratio vs. GLP-1R, GLP-1R” value (human GLP-1R; Table 25) was 100. The “Relative % to non-lipidated peptide, GLP-1R” value (human GLP-1R; Table 26) was 29%, the “Activity relative to STD peptide (%), GCGR” value (human GCGR; Table 18) was 1% and the “Activity relative to GLP-1 (%), GCGR” value (human GCGR; [3]) was 0%. For the same compound, the “Relative % to native ligand, GCGR” value (human GCGR; [4]) was 1%, the “Ratio vs. GLP-1R, GCGR” value (human GCGR; Table 25) was 0 and the “Relative % to non-lipidated peptide, GCGR” value (human GCGR; Table 26) was 1%. For the same compound, the “Weight loss (%)” value [2] was 10.4 ± 1.2%.
